From paper PMC9555310, “Novel inhibitors and activity-based probes targeting serine proteases” (Frontiers in Chemistry, 2022)

Experiments:
[1] = target: T1, thrombin (Homo sapiens, UniProt P00734); assay: Irreversible inhibition kinetics of thrombin (fluorogenic substrate progress curves); format: biochemical; conditions: PBS pH 7.4, 37°C, mean ± SD (n=2)
T1 construct: apparent molecular mass of 31 kDa, corresponding to the heavy (catalytic) chain of the protease; purchased R&D Systems
Experimental: A range of inhibitor concentrations were prepared from a 10 mM stock solution of the test compounds (NAP533, NAP559, NAP800, NAP830, NAP849, and NAP962) in N, N-dimethylformamide (DMF). Recombinant protease activities were assayed using the cognate fluorogenic substrates as follows: trypsin (Z-Gly-Gly-Arg-NHMec), thrombin (Boc-Val-Pro-Arg-NHMec), plasmin (Boc-Val-Leu-Lys-NHMec), human neutrophil elastase (MeO-Succinyl-Ala-Ala-Pro-Val-NHMec), and chymotrypsin (Succinyl-Ala-Ala-Pro-Phe-NHMec). Each substrate was used at a final concentration of 50 μM, in the appropriate buffer for each protease. All inhibition assays were performed in microtiter plates maintained at 37°C in a final volume of 100 μL. The reaction was initiated by the addition of each protease (approx. 0.01 μg/well) and the rate of substrate hydrolysis was recorded continuously at 37°C, over a 60 min period, by measuring the rate of increase in fluorescence (at λex 360 nm, λem 480 nm) using a FLUOstar Optima microplate reader (BMG Labtech).
The resultant inhibition progress curves obtained for each inhibitor were analyzed by the kinetic models developed by [Tian and Tsou (1982)] and [Walker and Elmore (1984)], for irreversible inhibitors, with curve fitting being achieved using GraFit (Erithacus Software), as described previously ([Ferguson et al., 2016]).
Protease inactivation by each of the compounds under study was evaluated using a fluorogenic enzyme assays. Protease-substrate combinations used as detailed in Section 2. Inhibitors were made up as 10 mM stock solutions in either DMF or DMSO, then diluted with PBS (pH 7.4) to give appropriate working concentrations. A final volume of 100 μL was used per well. […] Increase in fluorescence was recorded using a FLUOstar OPTIMA spectrofluorometer (BMG Labtech), excitation 380 nm and emission 460 nm, for 61 cycles (60 seconds/cycle), with results analysed using MARS Data Analysis Software (BMG Labtech). […]

[2] = target: T2, trypsin (Sus scrofa, UniProt P00761); assay: Activity-based profiling of trypsin (SDS-PAGE, streptavidin-HRP western blot); format: binding, porcine; conditions: 50 μM ABP, 30 min, 37°C; band of apparent molecular weight 23 kDa
T2 construct: purchased Sigma-Aldrich; host or cells: porcine pancreas
Experimental: Samples of recombinant protease (trypsin, plasmin, thrombin, chymotrypsin, or HNE, as indicated in the relevant figure legends) were treated with each of the newly synthesized compounds at a concentration of 50 μM, for 30 min, at 37°C. A control sample (no ABP) was prepared by treating the recombinant protease with solvent vehicle (DMF) only, used to prepare the stock solution of each ABP. Samples were also pre-treated (±90°C for 30 min) before being incubated with each putative ABP. With trypsin and thrombin, further samples were prepared where Z-Arg^P-(OPh)2 or NAP559, respectively, was added 30 min prior to the addition of the ABP under examination. All treated samples were then denatured with SDS containing reducing treatment buffer (10 min at 95°C), followed by resolution by SDS-PAGE and subjected to Western blotting. Resolved proteins were then transferred onto the nitrocellulose membrane and labeled with streptavidin-HRP. […]
Following transfer, the extra protein binding sites on the membrane were blocked by addition of 3% (w/v) BSA in TBST (20 mM Tris, 137 mM NaCl, 1% (v/v) Tween 20, pH 7.6) and agitated gently at room temperature for 30 minutes. The biotin-labelled proteases were then detected by addition of Streptavidin-HRP (Vector Laboratories) in 3% (w/v) BSA in TBST at a concentration of 1:20000, for 1 hour at room temperature. […]

T2 sequence (P00761 9-231): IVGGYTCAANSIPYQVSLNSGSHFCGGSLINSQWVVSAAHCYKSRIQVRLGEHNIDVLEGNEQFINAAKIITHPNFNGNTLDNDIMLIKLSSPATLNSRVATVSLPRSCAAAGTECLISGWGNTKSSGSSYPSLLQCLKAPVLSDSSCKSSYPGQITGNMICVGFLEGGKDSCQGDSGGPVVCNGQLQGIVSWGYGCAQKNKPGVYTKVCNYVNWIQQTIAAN

KI (inactivation) ([1]; Boc-Val-Pro-Arg-NHMec 50µM) | k 3 ([1]; first-order rate constant) | k 3 / K i ([1]; second-order rate constant) | Structure (SMILES) | labelling of trypsin by ABP (western blot) [2]
5.67 µM | 0.6 (± 0.068) min^-1 | 1.1 (± 0.3) x 10^5 M^-1 min^-1 | N=C(N)NCCCN(CC(=O)N1CCC[C@H]1C(=O)N(CC(N)=O)Cc1ccccc1)C(=O)ON1C(=O)CCC1=O [NAP559, Succinimidoyl-CO-NArg-D-Pro-NPhe-NH2] | –
– | – | – | NCCCCN(CC(=O)NCC(=O)NCC(=O)NCCCOCCOCCOCCCNC(=O)CCCCC1SCC2NC(=O)NC21)C(=O)ON1C(=O)CCC1=O (stereo not drawn) [NAP830, Succinimidoyl-CO-NLys-Gly-Gly-PEG-Biotin] | enabled the active site labeling and detection of the protease
